Source: patent EP4752145A1, “DIAMINOCYCLOPENTYL SUBSTITUTED HETEROARYL DERIVATIVES, USE THEREOF AND PREPARATION METHOD THEREFOR” (Tuojie Biotech (Shanghai) Co., Ltd., priority 2023, dated 2025)

How the values were obtained:
[1] = test system: LDLR protein level of HepG2 cells; test: Effect on LDLR level of HepG2 cells stimulated with PCSK9 D374Y (human LDLR ELISA); type: cell-based; details: 75 µM compound; for LDLR protein level result relative to reference compound 1: fold of the result of reference compound 1; for LDLR up-regulation level" (% control): 4 nM PCSK9 D374Y, 48 h, mean of three duplicate wells
Description: HepG2 cells were seeded in a 96-well plate at 30,000 cells/well. The next day, 4 nM PCSK9 D374Y was added to each well to stimulate cells, and the cells were treated with a test compound at the same concentration. Three duplicate wells were set for each sample. The cells were cultured at 37 °C with 5% carbon dioxide for 48 h. The cells were washed twice with PBS, and the supernatant was discarded. The cells were then placed on ice and treated with an RIPA lysis buffer containing protease and phosphatase inhibitors at 50 µL/well. The cell culture plate was frozen overnight in a -80 °C freezer, thawed, then lysed on ice for 30 min, and then centrifuged at a low temperature for 15 min. The cell lysate was diluted 20-fold, and an ELISA was performed. A sample or a reference standard was added to a coated well plate at 50 µL/well, and the plate was incubated at room temperature for 2 h. The plate was washed 4 times with a washing buffer by aspiration, and a human LDLR conjugated antibody was added at 200 µL/well. The plate was incubated at room temperature for 2 h. The washing step was repeated, and a substrate solution was added at 200 µL/well. After 30 min, a stop solution was added at 50 µL/well, and the OD was measured at 450 nm. After the LDLR concentration in the sample wells was calculated according to a standard curve, the LDLR increase rate was calculated using the formula (sample value - mean of control wells) / mean of control wells. Data were processed using GraphPad Prism 8. Table 6. The effects of reference compound 1 and example compounds at a concentration of 75 µM on the LDLR protein level of HepG2 cells

[2] = target: PCSK9 (biotinylated) (Homo sapiens, UniProt Q8NBP7); test: Binding of compounds to PCSK9 by SPR (BIAcore S200, SA chip); details: for Kd: SPR, immobilized biotinylated PCSK9, test compounds diluted 3-fold from 10 µM
Description: Table 1. Main experimental materials and instruments
• 1) Protein: PCSK9 (biotinylated) (Acro). The protein was dissolved in water to 200 µg/mL, and the solution was stored at -80 °C. • 2) Chip: SA chip. • 3) Running buffer: 1 × HBSP + 4% DMSO + 0.1 mM CaCl2.
• 1) The chip was pre-warmed to room temperature. • 2) The required buffer was prepared and filtered through a 0.22 µm filter membrane. • 3) The chip was loaded, and parameters were written to the chip. • 4) The PCSK9 protein was diluted to 50 µg/mL in PBS. • 5) An immobilization program was set on the BIAcore S200 instrument. • 6) The immobilization program was run. • 7) The final immobilization response value was 8000 RU, and the maximum response value was 49.4 RU.
1) The compounds were serially diluted 3-fold in the running buffer. The reference compound was diluted 3-fold from 0.4 µM. The test compounds were diluted 3-fold from 10 µM. 2) A dissolution correction buffer was prepared according to the table below: Table 2. Dissolution correction buffer
3) The "LMW multi kinetics" program of the instrument was set as a running program for compound testing. • a) The association time was set at 100 s, and the dissociation time was set at 300 s. 4) The compound testing program was run.
1) Rmax = (MWanalyte/MWligand) × RL × Sm [formula] When affinity fitting was used to fit a curve, the response value of the highest concentration should be close to the fitted Rmax value for an optimal result. 2) Solvent correction and compound concentration gradients were checked. 3) The baseline, binding, and positive compound results in the test report were checked. 4) A suitable fitting method was selected according to the actual association to fit a curve. 5) Whether the fitting result met the data quality assessment criteria of the instrument was checked. Table 3. The binding of compounds of the present disclosure to PCSK9 (KD)

[3] = Stability test in hepatocytes (metabolic clearance rate); type: in vitro ADME; details: cryopreserved hepatocytes, mouse hepatocytes, 0.5 × 10^6 cells/mL, up to 120 min
Description: • 1) The test compounds and the control drug verapamil powder were dissolved in DMSO to prepare high-concentration stock solutions. Before use, the stock solutions were diluted with DMSO to prepare 100 µM working solutions. The final concentrations of the test compounds and verapamil were 1 µM. • 2) A tube of cryopreserved hepatocytes was taken. It was ensured that the hepatocytes were still in a low-temperature frozen state before thawing. The hepatocytes were quickly placed in a 37 °C water bath, gently shaken until all ice crystals were dispersed, sprayed with 70% ethanol, and then transferred to a biosafety cabinet. • 3) The contents of small tubes of hepatocytes from different species were poured into a centrifuge tube containing 50 mL of thawing culture medium and centrifuged at 100 g for 10 min. After centrifugation, the thawing culture medium was pipetted off, and a sufficient amount of incubation culture medium was added to obtain a cell suspension with a cell density of about 1.0 × 10^6 cells/mL. • 4) Hepatocytes were counted using Cellometer Vision, and the viable cell density was determined. The viability of hepatocytes must be greater than 75%. The hepatocyte suspension was diluted with the incubation culture medium to a viable cell density of 0.5 × 10^6 cells/mL. • 5) 198 µL of the viable cell suspension was transferred to a 96-well deep-well plate, and the deep-well plate was placed on a vortexer and pre-heated in an incubator for 10 min. In the experiment, the incubation was performed in duplicate. • 6) 2 µL of the 100 µM test compound or verapamil solution was added to each well to start a reaction, and the deep-well plate was placed back on the vortexer in the incubator. • 7) The samples were incubated. At 0 min, 15 min, 30 min, 60 min, 90 min, and 120 min, 25 µL of the suspension was taken, and 150 µL of acetonitrile containing an internal standard was added to stop the reaction. After 10 min of vortexing, the mixture was centrifuged at 3220 g at 4 °C for 45 min. […] After thorough mixing, the mixture was analyzed by UPLC-MS/MS.
All data calculations were performed through Microsoft Excel software. The peak areas were determined through an extracted ion chromatogram. Through linear fitting of the natural logarithm of the parent drug […] percentage versus time, the in vitro half-life (T1/2) of the parent drug was determined.
The in vitro half-life (T1/2) was calculated through the slope: In vitro T1/2 = 0.693/k [formula]
The in vitro clearance rate (in µL/min/10^6 cells) was calculated using the following formula: In vitro CLint = kV/N, [formula] • where V = the incubation volume per well (0.2 mL); • N = the number of cells per well (0.1 × 10^6 cells). […]

[4] = In vivo pharmacokinetic experiment in mice; details: oral, 10 mg/kg, fold of reference compound 1
Description: (§1) C57BL6J mice were used as test animals. […] Reference compound 1 and the example compound were both administered at a dose of 10 mg/kg. Procedure: Mice were intragastrically dosed with reference compound 1 and the example compound. At 0.25 h, 0.5 h, 1 h, 2 h, 4 h, 6 h, 8 h, and 24 h post-dose, blood samples (about 0.03 mL) were collected via peripheral venipuncture, placed into test tubes containing EDTA-K2, and centrifuged at around 4 °C at 4000 g per minute for 5 min to separate plasma, and the plasma was stored at -75 °C.
(§2) Determination of the content of the test compound in mouse plasma after the compound (at different concentrations) was orally administered: 10 µL of the mouse plasma collected at each time point post-dose was vortexed with 5 µL of a blank solution and 200 µL of a solution of dexamethasone (internal standard) in acetonitrile for 30 s. The mixture was centrifuged for 15 min (3900 rpm), and 12 µL of the supernatant was taken for LC/MS/MS analysis.

[5] = test system: Mouse hepatocytes; test: Metabolite testing in mouse hepatocytes (parent drug remaining); type: in vitro ADME, Mice; details: mouse hepatocytes (ICR/CD-1, male), 10 µM
Description: The objective of this experiment was to identify possible metabolites of a test compound in hepatocytes of different species and speculate about its possible metabolic pathway. The test concentration of the test compound was 10 µM.
Mouse hepatocytes were preserved in liquid nitrogen.
The test compound and the control drug verapamil powder were dissolved in DMSO to prepare high-concentration stock solutions. Before use, the stock solutions were diluted with DMSO to prepare 2 mM working solutions. The final concentrations of the test compound and verapamil were 10 µM.
• 1) Before use, the hepatocyte thawing solution and the incubation solution were placed in a 37 °C water bath and pre-heated for at least 15 min. • 2) A tube of cryopreserved hepatocytes was taken. […] After centrifugation, the thawing culture medium was pipetted off, and a sufficient amount of incubation culture medium was added to obtain a cell suspension with a cell density of about 1.5 × 10^6 cells/mL. • 4) Hepatocytes were counted using Cellometer Vision, and the viable cell density was determined. […]
• 1) 1 µL of the 2 mM test compound solution was pipetted into a 24-well incubation plate, and 199 µL of the hepatocyte suspension was then added to start a reaction. […] 60 µL of the supernatant was well mixed with 60 µL of purified water, and the mixture was then analyzed by UHPLC-MS/MS. […]

[6] = in vivo; details: male, C57BL6J, mouse, plasma, po, 10 mg/kg
Description: as §1, §2

Sequence of PCSK9 (biotinylated) (Q8NBP7 153-692): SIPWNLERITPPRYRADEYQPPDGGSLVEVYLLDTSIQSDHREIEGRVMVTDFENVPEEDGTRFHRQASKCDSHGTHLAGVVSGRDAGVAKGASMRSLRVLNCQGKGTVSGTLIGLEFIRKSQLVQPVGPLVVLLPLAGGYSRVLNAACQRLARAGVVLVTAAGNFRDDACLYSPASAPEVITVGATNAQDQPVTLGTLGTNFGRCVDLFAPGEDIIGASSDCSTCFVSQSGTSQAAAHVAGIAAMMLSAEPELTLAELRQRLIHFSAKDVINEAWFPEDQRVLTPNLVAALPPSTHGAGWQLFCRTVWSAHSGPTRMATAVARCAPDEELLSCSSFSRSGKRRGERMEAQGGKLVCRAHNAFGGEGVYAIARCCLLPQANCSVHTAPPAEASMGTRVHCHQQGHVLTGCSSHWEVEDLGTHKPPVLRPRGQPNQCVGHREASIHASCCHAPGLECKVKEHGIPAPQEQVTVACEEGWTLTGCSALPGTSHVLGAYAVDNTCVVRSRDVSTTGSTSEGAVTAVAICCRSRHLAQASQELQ

| Structure (SMILES) | LDLR up-regulation level" (% control) [1] [% control] | Kd [2] [µM] | hepatocyte CLint at 1 µM [3] [µL/min/1e6 cells] | further results |
| --- | --- | --- | --- | --- |
| O=C1c2ccccc2CN1c1cnc(N[C@H]2CC[C@H](Nc3ncc4c(n3)OCCO4)C2)cn1 [Example 8, 2-(5-{[(1S,3S)-3-(6,7-Dihydro[1,4]dioxino[3,2-d]pyrimidin-2-ylamino)cyclopentyl]amino}pyrazin-2-yl)-2,3-dihydro-1H-isoindol-1-one] | – | – | – | LDLR protein level result relative to reference compound 1 [1]: 1.04 times |
| O=c1ccccn1-c1cnc(N[C@H]2CC[C@H](Nc3ncc4c(n3)OCCO4)C2)cn1 [Example 7, 1-(5-{[(1S,3S)-3-(6,7-Dihydro[1,4]dioxino[3,2-d]pyrimidin-2-ylamino)cyclopentyl]amino}pyrazin-2-yl)-1,2-dihydropyridin-2-one] | – | – | – | LDLR protein level result relative to reference compound 1 [1]: 1.16 times |
| O=c1cccnn1-c1ccc(N[C@H]2CC[C@H](Nc3ncc4c(n3)OCCO4)C2)nc1 [Example 5, 2-(6-{[(1S,3S)-3-(6,7-Dihydro[1,4]dioxino[3,2-d]pyrimidin-2-ylamino)cyclopentyl]amino}pyridin-3-yl)-3H,2H-1,2-pyridazin-3-one] | 188 | – | – | – |
| O=c1ccccn1-c1ccc(N[C@H]2CC[C@H](Nc3ncc4c(n3)C(F)(F)CC4)C2)nc1 [Example 2, 1-(6-{[(1S,3S)-3-[(7,7-Difluoro-6,7-dihydro-5H-cyclopenta[1,2-d]pyrimidin-2-yl)amino]cyclopentyl]amino}pyridin-3-yl)-1,2-dihydropyridin-2-one] | – | 0.0687 | 21 | – |
| O=c1ccccn1-c1cnc(N[C@H]2CC[C@H](Nc3ncc4c(n3)OCCO4)C2)c(F)c1 [Example 6, 1-(5-Fluoro-6-{[(1S,3S)-3-(6,7-dihydro[1,4]dioxino[3,2-d]pyrimidin-2-ylamino)cyclopentyl]amino}pyridin-3-yl)-1,2-dihydropyridin-2-one] | 155 | – | – | – |
| O=c1ccccn1-c1ccc(N[C@H]2CC[C@H](Nc3ncc4ccccc4n3)C2)nc1 [Example 11, 1-(6-{[(1S,3S)-3-(Quinazolin-2-ylamino)cyclopentyl]amino}pyridin-3-yl)-1,2-dihydrop yridin-2-one] | – | 0.18 | – | – |
| O=c1ccccn1-c1ccc(N[C@H]2CC[C@H](Nc3ncc4c(n3)CCC4)C2)nc1 [Example 1, 1-(6-{[(1S,3S)-3-(6,7-Dihydro-5H-cyclopenta[1,2-d]pyrimidin-2-ylamino)cyclopentyl]amino}pyridin-3-yl)-1,2-dihydropyridin-2-one] | – | 0.0263 | 13.2 | – |
| O=c1ccccn1-c1ccc(N[C@H]2CC[C@H](Nc3ncc4c(n3)OCCO4)C2)nc1 [Example 3, 1-(6-{[(1S,3S)-3-(6,7-Dihydro[1,4]dioxino[3,2-d]pyrimidin-2-ylamino)cyclopentyl]amino}pyridin-3-yl)-1,2-dihydropyridin-2-one] | 160 | 0.0758 | < 0.1 | binding stronger than that of the reference compound 2 ([2]; fold of binding strength versus reference compound 2): more than 10 times; plasma exposure level relative to reference compound 1 [4]: ~3 times; Normalized parent drug remaining proportion (%) after 240 min of incubation [5]: 98.3%; AUC(0-t) [6]: 48000 ng·h/mL; Cmax [6]: 11400 ng/mL; half-life [6]: 2.75 h |
| O=c1ccccn1-c1ccc(N[C@H]2CC[C@H](Nc3ncc4sccc4n3)C2)nc1 [Reference compound 2, reference compound] | – | – | 15.7 | – |
